Where two headings read alike, the source gives them in different places.
Columns and labels:
HT-29 cells [1] = assay: Fluorescent/confocal microscopy of Hypoxyfluor and CA IX-Rhodamine on HT-29 cells; type: cell-based, human; conditions: 1 hour incubation, unbound conjugate washed off
Protocol: HT-29 cells (10^5) were seeded into chambered coverglass plates and allowed to grow to confluence over 48-72 hr. […] After incubation for 1 hour at 37° C., cells were rinsed three times with 1 mL of incubation solution to remove unbound fluorescence and 0.5 mL of fresh medium was added to the wells.
HT-29 cells that naturally express CA IX were used to determine cancer cell uptake and binding affinity of the newly synthesized conjugate. […] Fluorescence was quantitated as described above to determine binding affinity.

HT-29 cells [2] = assay: Binding of Hypoxyfluor to HT-29 cells (cell associated fluorescence); design: species or system human
Protocol: After washing, the remaining fluorescence was quantitated by fluorescence spectroscopy. Error bars represent standard deviation.
HT-29 cells (10^5) were seeded into 24-well BD purecoat amine plates and allowed to grow to confluence over 48-72 hr. Spent medium was replaced with 0.5 mL of fresh medium containing 0.5% bovine serum albumin, and various concentrations of the dye conjugate alone or the dye conjugate plus 100-fold excess CA IX ligand were added. After incubation for 1 hour at 37° C., cells were rinsed with incubation solution (2×1.0 mL) to remove unbound fluorescence and dissolved in 0.5 mL of 1% aqueous sodium dodecyl sulfate. Cell associated fluorescence was then measured using an excitation of 745 nm and emission of 790 nm. All experiments were performed in triplicate. The dissociation constant (KD) was calculated from a plot of cell bound fluorescence (RFU) versus the concentration of fluorescent conjugate added using the program, Graphpad Prism, and assuming a noncooperative single site binding equilibrium.

HT-29 tumor xenografts = type: in vivo, mice
Protocol: Mice bearing HT-29 tumors were injected via tail vein with 4 nmol Hypoxyfluor alone or in combination with 100-fold excess CA IX inhibitor. Fluorescence images were acquired 4 hours post injection.
Tissues and organs were excised after whole animal imaging and the fluorescence images of the isolated tissues were acquired.
Mice bearing HT-29 tumors were injected via tail vein with the indicated concentrations of Hypoxyfluor and fluorescence images were acquired 4 hours post injection.
Using a 25-gauge needle, six-week-old female nu/nu mice were inoculated subcutaneously in their shoulders with HT-29 cells in RPMI1640 medium (5.0×10^6 cells per mouse). Tumor growth was measured in 2 perpendicular directions every 2 days with a caliper. Tumor volumes were calculated using the formula 0.5×L×W^2, where L is the measurement of the longest axis and W is the measurement of the axis perpendicular to L. Tumor bearing mice were treated via tail vein injection with different concentrations of Hypoxyfluor in the presence or absence of 100-fold CA IX ligand to block all unoccupied CA IX binding sites. Mice were imaged 4 hours post injection using a Caliper IVIS Lumina II Imaging station coupled to an ISOON5160 Andor Nikon camera equipped with Living Image Software Version 4.0. Image acquisition settings were as follows: lamp level, high; excitation, […]; emission, ICG; epi illumination; binning (M) 4; FOV, 12.5; f-stop, 4; acquisition time, 1 s.

HT-29 cells [3] = assay: 99mTc conjugates binding to HT-29 cells (apparent KD, gamma counting); design: species or system human
Protocol: HT-29 cells (150,000 cells/well in 500 μL) were seeded into 24-well Falcon plates and allowed to form monolayers over 48 h. […] After incubating for 1 h at 37° C., cells were rinsed twice with 1 mL of medium and 1 mL of tris buffer. After dissolving in 0.5 mL of 0.25 M NaOH (aq), cells were transferred into individual γ-counter tubes and radioactivity was counted using a γ-counter (Packard, Packard Instrument Company). Apparent KD was calculated by plotting bound radioactivity versus the concentration of radiotracer using GraphPad Prism 4.

HT-29 xenografts = conditions: mouse, in vivo
Protocol: Additional mice were simultaneously injected with 100 nmol of unlabeled L2 or L3 ligand. Major tissues/organs were removed and the amount of radioactivity was determined. The percentage of injected dose/g of tissue was calculated and plotted. Error bars represent standard deviation.
Five-week-old male nu/nu mice were inoculated subcutaneously with HT-29 cells (5.0×10^6/mouse) on their shoulders. Growth of the tumors was measured in two perpendicular directions every 2 days using a caliper (body weights were monitored on the same schedule), and the volumes of the tumors were calculated as 0.5×L×W^2 (L=longest axis and W=axis perpendicular to L in millimeters). […] At various times, animals were sacrificed by CO2 asphyxiation. Images were acquired by shielding the kidneys via a Kodak Imaging Station (In-Vivo FX, Eastman Kodak Company) in combination with CCD camera and Kodak molecular imaging software (version 4.0). Radioimages: illumination source=radio isotope, acquisition time=3 min, f-stop=4, focal plane=5, FOV=160, binning=4. […] Radioactivity of preweighed tissues and ^99mTc-bound conjugates (10 nmol, 150 μCi) in saline (100 μL) was counted in a γ-counter. CPM values were decay corrected, and results were calculated as % injected dose (ID)/gram of wet tissue.

[4] = 4 nmol tail vein, 4 hours post injection

`COC(=O)N(CCN(CC(=O)NCCOCCOCCOCCOCCOCCOCCOCCOCCOCCOCCOCCOCCC(=O)CCCc1ccc(OC2=C(/C=C/C3=[N+](CCCCS(=O)(=O)O)c4ccc(S(=O)(=O)O)cc4C3(C)C)CCC/C2=C\C=C2\N(CCCCS(=O)(=O)O)c3ccc(S(=O)(=O)O)cc3C2(C)C)cc1)CC(=O)Nc1ccc(S(N)(=O)=O)cc1)CC(=O)Nc1ccc(S(N)(=O)=O)cc1` [Hypoxyfluor] was tested, and the “location of binding on cultured HT-29 cells” value (HT-29 cells [1]) was “binding was seen on both the cell surface and internal endosomes”, the Kd (HT-29 cells [2]; 1 hour at 37° C., excitation 745 nm, emission 790 nm, triplicate, read-out: apparent dissociation constant) was 45 nM and the “binding after pre-incubation with 100-fold excess of the unconjugated ligand” value (HT-29 cells [2]; HT-29 cells) was “binding was competed”. The whole animal fluorescence (HT-29 tumor xenografts; [4]) was “predominately detected in the tumor”, the “whole animal fluorescence with 400 nmol CA IX ligand” value (HT-29 tumor xenografts; [4]) was “no fluorescent signal could be detected” and the “whole body fluorescence, dose escalation” value (HT-29 tumor xenografts; 40 nmol/mouse) was “nontumor associated fluorescence became apparent”. For the same compound, the “whole body fluorescence, dose escalation” value (HT-29 tumor xenografts; low and intermediate doses (3 and 13 nmol)) was “fluorescence was restricted to the tumor”.
In the case of `N[C@H](CNC(=O)CCOCCOCCOCCOCCOCCOCCOCCOCCOCCOCCOCCOCCNC(=O)CN(CCN(CC(=O)O)CC(=O)Nc1ccc(S(N)(=O)=O)cc1)CC(=O)Nc1ccc(S(N)(=O)=O)cc1)C(=O)N[C@@H](CC(=O)O)C(=O)NC[C@H](CS)C(=O)O` [L2-PEG12-EC20], the Kd (HT-29 cells [3]; 99mTc-bound conjugate, 1 h at 37° C., read-out: Binding Affinity (apparent KD)) is reported as 54 nM, the “decrease of binding by addition of the PEG12-EC20” value (HT-29 cells [3]; binding affinity of conjugate versus reported Ki of original ligand) is reported as about 7 fold and the “overall percentage of the injected dose retained in the tissues” value (HT-29 xenografts) is reported as “somewhat lower overall percentage of the injected dose being retained in the tissues”.

From patent US11925696B2, “Carbonic anhydrase IX targeting agents and methods” (priority 2016, dated 2024)
